According to patent US10457687B2, “Aminoacid derivatives, a process for their preparation and pharmaceutical compositions containing them” (LES LABORATOIRES SERVIER, priority 2015, dated 2019):

Target: Mcl-1 protein (Homo sapiens, UniProt Q07820)
Assay: Inhibition of Mcl-1 by the fluorescence polarisation technique (Method 1 or Method 2)
Format: binding
Details: for IC50: fluorescence polarisation, Fluorescein labelled ligand, Method 1 (not underlined) or Method 2 (underlined), read-out: IC50 (μM) Mcl-1 FP; for percentage fluorescence polarisation inhibition, Mcl-1 FP: partial inhibitors
In short: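 Fluorescence polarisation competition of 11-point compound dilutions (5% DMSO final) against fluorescein-labelled ligand for Mcl-1. Method 1: 1 nM ligand, 5 nM protein in 10 mM HEPES, 150 mM NaCl, 0.05% Tween 20, pH 7.4; Method 2: 10 nM ligand, 10 nM protein in 20 mM Na2HPO4, 1 mM EDTA, 50 mM NaCl, pH 7.4.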

Mcl-1 protein, sequence (Q07820 whole entry): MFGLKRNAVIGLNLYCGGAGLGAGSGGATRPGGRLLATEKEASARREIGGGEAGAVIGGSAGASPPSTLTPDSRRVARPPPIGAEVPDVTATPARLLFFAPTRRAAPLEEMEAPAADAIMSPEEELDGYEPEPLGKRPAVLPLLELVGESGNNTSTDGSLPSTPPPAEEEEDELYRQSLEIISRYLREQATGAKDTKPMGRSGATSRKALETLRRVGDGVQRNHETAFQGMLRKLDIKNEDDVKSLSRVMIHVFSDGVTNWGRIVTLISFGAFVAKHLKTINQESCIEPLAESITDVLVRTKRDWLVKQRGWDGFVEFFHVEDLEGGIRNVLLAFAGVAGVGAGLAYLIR

Row | IC50 [µM] | Structure (SMILES) | other results
1 | 0.02 | CCc1sc2ncnc(NC(Cc3ccccc3)C(=O)O)c2c1-c1cc(Cl)c(O)c(Cl)c1C [Example 53, N-[(5Sa)-5-(3,5-dichloro-4-hydroxy-2-methylphenyl)-6-ethylthieno[2,3-d]pyrimidin-4-yl]-D-phenylalanine] | 
2 |  | CCc1sc2ncnc(N[C@H](C(=O)O)[C@H](O)c3ccccc3)c2c1-c1cccc(Cl)c1C [Example 124, (βR)—N-[(5Ra)-5-(3-chloro-2-methylphenyl)-6-ethylthieno[2,3-d]pyrimidin-4-yl]-beta-hydroxy-L-phenylalanine] | percentage fluorescence polarisation inhibition, Mcl-1 FP (@ 50 μM test compound): 75.7% @ 50 μM
3 | 0.299 | CCc1sc2ncnc(NC(Cc3ccccc3F)C(=O)O)c2c1-c1cccc2ccccc12 [Example 181, N-[6-ethyl-(5Sa)-5-(naphthalen-1-yl)thieno[2,3-d]pyrimidin-4-yl]-2-fluoro-D-phenylalanine] | 
4 | 0.335 | CCc1sc2ncnc(NC(Cc3ccccc3OCC(=O)N(C)C)C(=O)O)c2c1-c1cccc(Cl)c1C [Example 142, N-[(5Sa)-5-(3-chloro-2-methylphenyl)-6-ethylthieno[2,3-d]pyrimidin-4-yl]-2-[2-(dimethylamino)-2-oxoethoxy]-D-phenylalanine] | 
5 | 0.146 | CCc1sc2ncnc(NC(Cc3ccccc3[N+](=O)[O-])C(=O)O)c2c1-c1cccc(Cl)c1C [Example 136, N-[(5Sa)-5-(3-chloro-2-methylphenyl)-6-ethylthieno[2,3-d]pyrimidin-4-yl]-2-nitro-D-phenylalanine] | 
6 | 0.913 | CCc1sc2ncnc(NC(Cc3ccccc3C#N)C(=O)O)c2c1-c1cccc(Cl)c1C [Example 127, N-[(5Sa)-5-(3-chloro-2-methylphenyl)-6-ethylthieno[2,3-d]pyrimidin-4-yl]-2-cyano-D-phenylalanine] | 
7 | 1.46 | CCc1sc2ncnc(N[C@](C)(Cc3ccccc3)C(=O)O)c2c1-c1cccc(Cl)c1C [Example 119, N-[5-(3-chloro-2-methylphenyl)-6-ethylthieno[2,3-d]pyrimidin-4-yl]-alpha-methyl-D-phenylalanine] | 
8 | 0.258 | CCc1sc2ncnc(NC(Cc3ccccc3)C(=O)O)c2c1-c1cccc2ccn(C)c12 [Example 83, N-[6-ethyl-(5Sa)-5-(1-methyl-1H-indol-7-yl)thieno[2,3-d]pyrimidin-4-yl]-D-phenylalanine] | 
9 | 0.955 | CCc1sc2ncnc(NC(CCc3ccccc3)C(=O)O)c2c1-c1cccc2ccccc12 [Example 170, (2R)-2-{[6-ethyl-(5Sa)-5-(naphthalen-1-yl)thieno[2,3-d]pyrimidin-4-yl]amino}-4-phenylbutanoic acid] | 
10 | 3.18 | CCc1sc2ncnc(NC(Cc3ccccc3)C(=O)O)c2c1-c1cccc(OC)c1C [Example 76, N-[6-ethyl-(5Ra)-5-(3-methoxy-2-methylphenyl)thieno[2,3-d]pyrimidin-4-yl]-D-phenylalanine] | 
11 |  | Cc1c(-c2c(-c3ccsc3)sc3ncnc(NC(Cc4ccccc4F)C(=O)O)c23)ccc(OCCN2CCN(C)CC2)c1Cl [Example 33, N-[(5Ra)-5-{3-chloro-2-methyl-4-[2-(4-methylpiperazin-1-yl)ethoxy]phenyl}-6-(thiophen-3-yl)thieno[2,3-d]pyrimidin-4-yl]-2-fluoro-D-phenylalanine] | percentage fluorescence polarisation inhibition, Mcl-1 FP (@ 10 μM test compound): 54.9% @ 10 μM
12 | 1.75 | CCc1sc2ncnc(N[C@H](Cc3cn(C)cn3)C(=O)O)c2c1-c1cccc2ccccc12 [Example 194, N-[6-ethyl-5-(naphthalen-1-yl)thieno[2,3-d]pyrimidin-4-yl]-1-methyl-D-histidine] | 
13 |  | CCc1sc2ncnc(NC(Cc3ccccc3)C(=O)OC)c2c1-c1cccc2ccccc12 [Example 255, methyl N-[6-ethyl-(5Ra)-5-(naphthalen-1-yl)thieno[2,3-d]pyrimidin-4-yl]-D-phenylalaninate] | percentage fluorescence polarisation inhibition, Mcl-1 FP (@ 200 μM test compound): 41.08% @ 200 μM
14 |  | CC(O)c1sc2ncnc(N[C@H](Cc3ccccc3)C(=O)O)c2c1-c1cccc2ccccc12 (single isomer, unassigned) [Example 205, N-[6-(1-hydroxyethyl)-5-(naphthalen-1-yl)thieno[2,3-d]pyrimidin-4-yl]-D-phenylalanine] | percentage fluorescence polarisation inhibition, Mcl-1 FP (@ 100 μM test compound, 100 µM): 26.2% @ 100 μM
15 | 0.079 | CC=Cc1sc2ncnc(NC(Cc3ccccc3)C(=O)O)c2c1-c1cccc2ccccc12 [Example 108, N-{(5Sa)-5-(naphthalen-1-yl)-6-[(1E)-prop-1-en-1-yl]thieno[2,3-d]pyrimidin-4-yl}-D-phenylalanine] | 
16 | 0.086 | COc1ccccc1CC(Nc1ncnc2sc(C(C)C)c(-c3cccc(Cl)c3C)c12)C(=O)O [Example 223, N-[(5Sa)-5-(3-chloro-2-methylphenyl)-6-(propan-2-yl)thieno[2,3-d]pyrimidin-4-yl]-2-methoxy-D-phenylalanine] | 
17 | 0.073 | CCc1sc2ncnc(NC(Cc3ccccc3)C(=O)O)c2c1-c1cccc(Br)c1C [Example 97, N-[(5Sa)-5-(3-bromo-2-methylphenyl)-6-ethylthieno[2,3-d]pyrimidin-4-yl]-D-phenylalanine] | 

Row | IC50 [µM] | Structure (SMILES) | other results
18 |  | CCc1sc2ncnc(N[C@H](Cc3ccccc3)C(=O)OC)c2c1-c1cccc2ccccc12 [Example 254, methyl N-[6-ethyl-(5Sa)-5-(naphthalen-1-yl)thieno[2,3-d]pyrimidin-4-yl]-D-phenylalaninate] | percentage fluorescence polarisation inhibition, Mcl-1 FP (@ 200 μM test compound): 22.08% @ 200 μM
19 |  | COc1ccccc1C[C@@H](Nc1ncnc2sc(C(C)C)c(-c3cccc(Cl)c3C)c12)C(=O)O [Example 222, N-[(5Ra)-5-(3-chloro-2-methylphenyl)-6-(propan-2-yl)thieno[2,3-d]pyrimidin-4-yl]-2-methoxy-D-phenylalanine] | percentage fluorescence polarisation inhibition, Mcl-1 FP (@ 50 μM test compound): 70% @ 50 μM
20 |  | CCc1sc2ncnc(NC(Cc3ccccc3OCC(=O)N(C)C)C(=O)O)c2c1-c1cccc(Cl)c1C [Example 141, N-[(5Ra)-5-(3-chloro-2-methylphenyl)-6-ethylthieno[2,3-d]pyrimidin-4-yl]-2-[2-(dimethylamino)-2-oxoethoxy]-D-phenylalanine] | percentage fluorescence polarisation inhibition, Mcl-1 FP (@ 10 μM test compound): 26.78% @ 10 μM
21 | 0.073 | C=Cc1sc2ncnc(NC(Cc3ccccc3)C(=O)O)c2c1-c1cccc2ccccc12 [Example 102, N-[6-ethenyl-(5Sa)-5-(naphthalen-1-yl)thieno[2,3-d]pyrimidin-4-yl]-D-phenylalanine] | 
22 | 0.142 | CCc1sc2ncnc(N[C@H](Cc3ccccc3)C(=O)O)c2c1-c1cccc(F)c1C [Example 68, N-[6-ethyl-5-(3-fluoro-2-methylphenyl)thieno[2,3-d]pyrimidin-4-yl]-D-phenylalanine] | 
23 |  | CCc1sc2ncnc(N[C@H](Cc3ccccc3)C(=O)O)c2c1-c1cccc2cnn(C)c12 [Example 89, N-[6-ethyl-(5Ra)-5-(1-methyl-1H-indazol-7-yl)thieno[2,3-d]pyrimidin-4-yl]-D-phenylalanine] | percentage fluorescence polarisation inhibition, Mcl-1 FP (@ 200 μM test compound): 72.13% @ 200 μM
24 | 12 | CCc1sc2ncnc(N[C@H](Cc3ccccc3)C(=O)O)c2c1-c1cccc2cc[nH]c12 (single isomer, unassigned) [Example 72, N-[6-ethyl-5-(1H-indol-7-yl)thieno[2,3-d]pyrimidin-4-yl]-D-phenylalanine] | 
25 | 8.84 | CCc1sc2ncnc(NC(Cc3ccccc3)C(=O)O)c2c1-c1cc(Cl)c(OCCN2CCN(C)CC2)c(Cl)c1C [Example 55, N-((5Ra)-5-{3,5-dichloro-2-methyl-4-[2-(4-methylpiperazin-1-yl)ethoxy]phenyl}-6-ethylthieno[2,3-d]pyrimidin-4-yl)-D-phenylalanine] | 
26 | 0.704 | C/C=C\c1sc2ncnc(N[C@H](Cc3ccccc3)C(=O)O)c2c1-c1cccc2ccccc12 [Example 105, N-[(5Ra)-5-(naphthalen-1-yl)-6-((1Z)-prop-1-en-1-yl)thieno[2,3-d]pyrimidin-4-yl]-D-phenylalanine] | 
27 | 0.136 | O=C(O)[C@@H](Cc1ccccc1)Nc1ncnc2sc(C(F)F)c(-c3cccc4ccccc34)c12 (single isomer, unassigned) [Example 207, N-[6-(difluoromethyl)-5-(naphthalen-1-yl)thieno[2,3-d]pyrimidin-4-yl]-D-phenylalanine] | 
28 | 0.065 | C=C(C)c1sc2ncnc(NC(Cc3ccccc3)C(=O)O)c2c1-c1cccc2ccccc12 [Example 106, N-[(5Sa)-5-(naphthalen-1-yl)-6-(prop-1-en-2-yl)thieno[2,3-d]pyrimidin-4-yl]-D-phenylalanine] | 
29 | 1.86 | CC=Cc1sc2ncnc(NC(Cc3ccccc3)C(=O)O)c2c1-c1cccc2ccccc12 [Example 109, N-{(5Ra)-5-(naphthalen-1-yl)-6-[(1E)-prop-1-en-1-yl]thieno[2,3-d]pyrimidin-4-yl}-D-phenylalanine] | 
30 | 0.136 | CC(C)c1sc2ncnc(N[C@H](Cc3ccccc3)C(=O)O)c2c1-c1cccc2ccccc12 (single isomer, unassigned) [Example 201, N-[5-(naphthalen-1-yl)-6-(propan-2-yl)thieno[2,3-d]pyrimidin-4-yl]-D-phenylalanine] | 
31 | 0.046 | C/C=C\c1sc2ncnc(N[C@H](Cc3ccccc3)C(=O)O)c2c1-c1cccc2ccccc12 [Example 104, N-[(5Sa)-5-(naphthalen-1-yl)-6-((1Z)-prop-1-en-1-yl)thieno[2,3-d]pyrimidin-4-yl]-D-phenylalanine] | 
32 | 2.77 | CCc1sc2ncnc(NC(CCc3ccccc3)C(=O)O)c2c1-c1cccc2ccccc12 [Example 171, (2R)-2-{[6-ethyl-(5Ra)-5-(naphthalen-1-yl)thieno[2,3-d]pyrimidin-4-yl]amino}-4-phenylbutanoic acid] | 
33 | 1.77 | CCc1sc2ncnc(N[C@H](CC3CC3)C(=O)O)c2c1-c1cccc2ccccc12 [Example 159, 3-cyclopropyl-N-[6-ethyl-5-(naphthalen-1-yl)thieno[2,3-d]pyrimidin-4-yl]-D-alanine] | 
34 | 8.33 | CCc1sc2ncnc(N[C@@H](C(=O)O)c3cccc(-c4ccccc4)c3)c2c1-c1cccc2ccccc12 (single isomer, unassigned) [Example 189] | 
